Active and inactive are the calls of the source. The calls are words filed in the database; no cut-off is given here.
test: Inhibition of rate of poly(U,C) (unknown origin)-directed L-[14C]poly-(phenylalanine) formation in Escherichia coli cell-free ribosome system at 10^-3 M by liquid scintillation counting; type: functional

**Q.** With `COc1ccc(C[C@H](N)C(=O)N[C@H]2CC[C@@H](n3cnc4c(N(C)C)ncnc43)[C@@H]2O)cc1` as the molecule, how does the inhibition read?
**A.** inactive

**Q.** With `COc1ccc(C[C@H](N)C(=O)N[C@H]2CC[C@H](n3cnc4c(N(C)C)ncnc43)[C@H]2O)cc1` as the molecule, how does the inhibition read?
**A.** inactive

**Q.** Which inhibition does the source give for `COc1ccc(C[C@H](N)C(=O)N[C@H]2CCC[C@@H](n3cnc4c(N(C)C)ncnc43)[C@@H]2O)cc1` here?
**A.** inactive

**Q.** Which inhibition does the source give for `COc1ccc(C[C@H](N)C(=O)N[C@@H]2CCC[C@H](n3cnc4c(N(C)C)ncnc43)[C@H]2O)cc1` here?
**A.** inactive

**Q.** For `COc1ccc(C[C@H](N)C(=O)N[C@@H]2CC[C@H](n3cnc4c(N(C)C)ncnc43)[C@H]2O)cc1`, which inhibition is on record?
**A.** inactive

Reference: ChEMBL document CHEMBL3244109, “Synthesis of cyclohexyl carbocyclic puromycin and its inhibition of protein synthesis” (J Med Chem, 1977)
